Where “and” joins values, the source holds several entries; their conditions need not be identical. Equal entries are not always repeated.
What was measured:
[1] = molecular target: T1, EGF receptor tyrosine kinase (Homo sapiens, UniProt P00533); assay: Test (a): in vitro inhibition of the enzyme EGF receptor tyrosine kinase (partially purified from A-431 cells); format: biochemical; settings: example values stated as approximate
T1 construct: Receptor tyrosine kinase was obtained in partially purified form from A-431 cells; endogenous in cells; host or cells: A-431 cells (human vulval carcinoma), Triton X-100 solubilised pelleted material
Method: (a) An in vitro assay which determines the ability of a test compound to inhibit the enzyme EGF receptor tyrosine kinase. Receptor tyrosine kinase was obtained in partially purified form from A-431 cells (derived from human vulval carcinoma) by the procedures described below which are related to those described by Carpenter et al, J. Biol. Chem., 1979, 254, 4884, Cohen et al, J. Biol. Chem., 1982, 257, 1523 and by Braun et al., J. Biol. Chem., 1984, 259, 2051.
A-431 cells were grown to confluence using Dulbecco's modified Eagle's medium (DMEM) containing 5% fetal calf serum (FCS). The obtained cells were homogenised in a hypotonic borate/EDTA buffer at pH 10.1. The homogenate was centrifuged at 400 g for 10 minutes at 0°-4° C. The supernatant was centrifuged at 25,000 g for 30 minutes at 0°-4° C. The pelleted material was suspended in 30 mM Hepes buffer at pH 7.4 containing 5% glycerol, 4 mM benzamidine and 1% Triton X-100, stirred for 1 hour at 0°-4° C., and recentrifuged at 100,000 g for 1 hour at 0°-4° C. The supernatant, containing solubilised receptor tyrosine kinase, was stored in liquid nitrogen.
For test purposes 40 μl of the enzyme solution so obtained was added to a mixture of 400 μl of a mixture of 150 mM Hepes buffer at pH 7.4, 500 μM sodium orthovanadate, 0.1% Triton X-100, 10% glycerol, 200 μl water, 80 μl of 25 mM DTT and 80 μl of a mixture of 12.5 mM manganese chloride, 125 mM magnesium chloride and distilled water. There was thus obtained the test enzyme solution.
Equal volumes of this solution and a solution of epidermal growth factor (EGF; 20 μg/ml) were mixed.
[y-^32 P]ATP (3000 Ci/mM, 250 μCi) was diluted to a volume of 2 ml by the addition of a solution of ATP (100 μM) in distilled water. An equal volume of a 4 mg/ml solution of the peptide […]in a mixture of 40 mM Hepes buffer at pH 7.4, 0.1% Triton X-100 and 10% glycerol was added.
The test compound/EGF mixture solution (5 μl) was added to the test enzyme solution (10 μl) and the mixture was incubated at 0°-4° C. for 30 minutes. The ATP/peptide mixture (10 μl) was added and the mixture was incubated at 25° C. for 10 minutes. The phosphorylation reaction was terminated by the addition of 5% trichloroacetic acid (40 μl) and bovine serum albumin (BSA; 1 mg/ml, 5 μl). The mixture was allowed to stand at 4° C. for 30 minutes and then centrifuged. An aliquot (40 μl) of the supernatant was placed onto a strip of Whatman p 81 phosphocellulose paper. The strip was washed in 75 mM phosphoric acid (4×10 ml) and blotted dry. Radioactivity present in the filter paper was measured using a liquid scintillation counter (Sequence A). The reaction sequence was repeated in the absence of the EGF (Sequence B) and again in the absence of the test compound (Sequence C).
Receptor tyrosine kinase inhibition was calculated as follows: [formula]

[2] = system: human naso-pharyngeal cancer cell line KB; assay: Test (b): in vitro inhibition of EGF-stimulated growth of the human naso-pharyngeal cancer cell line KB; format: cell-based; settings: 72 h, EGF 10 ng/ml, 3 days incubation, MTT, example values stated as approximate
Method: (b) An in vitro assay which determines the ability of a test compound to inhibit the EGF-stimulated growth of the human naso-pharyngeal cancer cell line KB.
Cell growth was determined after incubation for 3 days by the extent of metabolism of MTT tetrazolium dye to furnish a bluish colour. Cell growth was then determined in the presence of EGF (10 ng/ml) or in the presence of EGF (10 ng/ml) and a test compound at a range of concentrations. An lC50 value could then be calculated.

[3] = system: carcinoma which does not express EGF receptor tyrosine kinase; settings: carcinoma not expressing EGF receptor tyrosine kinase; Toi et al., 1990; cited from earlier work
[4] = system: transplanted human mammary carcinoma which expresses EGF receptor tyrosine kinase; settings: athymic nude mice; EGF receptor tyrosine kinase expressing; Toi et al., 1990; cited from earlier work
[5] = system: xenografts of the human vulval epidermoid carcinoma cell line A-431; assay: Test (c): in-vivo inhibition of growth of A-431 xenografts in athymic nude mice; parameters: species or system human (xenograft in athymic nude mice); settings: Mus musculus, daily dosing, usually oral, tumour volume inhibition relative to untreated controls
Method: (c) An in-vivo assay in a group of athymic nude mice (strain ONU:Alpk) which determines the ability of a test compound (usually administered orally as a ball-milled suspension in 0.5% polysorbate) to inhibit the growth of xenografts of the human vulval epidermoid carcinoma cell line A-431. A-431 cells were maintained in culture in DMEM supplemented with 5% FCS nd 2 mM glutamine. Freshly cultured cells were harvested by trypsinization and injected subcutaneously (10 million cells/0.1 ml/mouse) into both flanks of a number of donor nude mice. When sufficient tumour material was available (after approximately 9 to 14 days), fragments of tumour tissue were transplanted in the flanks of recipient nude mice (test day 0). […] In some studies the dosing of the test compound was continued beyond test day 19, for example to test day 26. In each case, on the following test day the animals were killed and the final tumour volume was calculated from measurements of the length and width of the tumours. Results were calculated as a percentage inhibition of tumour volume relative to untreated controls.

[6] = system: EGF receptor tyrosine kinase; settings: Fry et al., Science, 1994, 265, 1093; cited from earlier work

T1 sequence (P00533 25-1210): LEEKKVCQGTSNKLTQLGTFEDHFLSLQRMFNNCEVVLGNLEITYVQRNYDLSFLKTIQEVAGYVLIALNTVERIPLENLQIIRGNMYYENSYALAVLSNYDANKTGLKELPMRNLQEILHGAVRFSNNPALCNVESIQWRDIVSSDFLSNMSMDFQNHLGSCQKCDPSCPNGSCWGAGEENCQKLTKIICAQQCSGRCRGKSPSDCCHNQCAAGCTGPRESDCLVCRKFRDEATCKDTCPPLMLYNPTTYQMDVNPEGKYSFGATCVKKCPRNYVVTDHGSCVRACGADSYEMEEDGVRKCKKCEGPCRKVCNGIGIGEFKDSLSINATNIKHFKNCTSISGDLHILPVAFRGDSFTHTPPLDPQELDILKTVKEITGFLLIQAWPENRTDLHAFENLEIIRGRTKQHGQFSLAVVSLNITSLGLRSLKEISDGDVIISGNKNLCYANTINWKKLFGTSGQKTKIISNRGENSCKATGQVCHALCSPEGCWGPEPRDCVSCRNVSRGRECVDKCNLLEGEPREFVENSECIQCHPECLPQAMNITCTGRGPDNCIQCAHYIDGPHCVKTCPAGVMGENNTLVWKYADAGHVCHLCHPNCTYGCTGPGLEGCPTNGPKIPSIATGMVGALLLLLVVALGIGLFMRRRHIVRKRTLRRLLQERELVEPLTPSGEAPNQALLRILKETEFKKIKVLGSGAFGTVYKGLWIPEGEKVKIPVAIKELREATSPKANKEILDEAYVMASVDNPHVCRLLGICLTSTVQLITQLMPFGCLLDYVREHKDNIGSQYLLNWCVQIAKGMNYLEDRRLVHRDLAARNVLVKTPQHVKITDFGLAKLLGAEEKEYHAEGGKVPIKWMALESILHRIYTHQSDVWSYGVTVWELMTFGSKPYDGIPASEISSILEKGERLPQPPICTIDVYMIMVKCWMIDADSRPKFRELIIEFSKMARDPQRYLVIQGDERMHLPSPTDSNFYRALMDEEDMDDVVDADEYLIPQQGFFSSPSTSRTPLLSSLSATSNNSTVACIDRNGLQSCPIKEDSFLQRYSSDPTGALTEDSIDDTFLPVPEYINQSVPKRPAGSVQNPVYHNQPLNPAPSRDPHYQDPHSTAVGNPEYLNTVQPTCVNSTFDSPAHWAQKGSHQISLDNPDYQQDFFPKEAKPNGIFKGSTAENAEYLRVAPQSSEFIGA

SMILES | IC50 [1] | IC50 [2] [µM] | other results
COc1cc2ncnc(Nc3ccc(F)c(Cl)c3)c2cc1OCC1(C)COC1 [Example 10, 4-(3'-chloro-4'-fluoroanilino)-7-methoxy-6-(3-methyloxetan-3-ylmethoxy)quinazoline] | 0.01 µM and 0.034 µM | 0.065 | 
COc1cc2ncnc(Nc3ccc(F)c(Cl)c3)c2cc1OCCCC1OCCO1 [Example 4, 4-(3'-chloro-4'-fluoroanilino)-6-[3-(1,3-dioxolan-2-yl)propoxy]-7-methoxyquinazoline] | 0.04 µM | 0.14 | 
COc1cc2ncnc(Nc3ccc(F)c(Cl)c3)c2cc1OCC1OCCO1 [Example 2, 4-(3'-chloro-4'-fluoroanilino)-6-(1,3-dioxolan-2-ylmethoxy)-7-methoxyquinazoline] | 0.01 µM | 0.2 | 
O=CN/C=C/c1cc(O)ccc1O [erbstatin] |  |  | growth of another carcinoma (in words) [3]: without effect on the growth; growth of transplanted human mammary carcinoma (in words) [4]: specifically attenuates the growth
COc1cc2ncnc(Nc3ccc(F)c(Cl)c3)c2cc1OCCC1OCCO1 [Example 3, 4-(3'-chloro-4'-fluoroanilino)-6-[2-(1,3-dioxolan-2-yl)ethoxy]-7-methoxyquinazoline] | 0.01 µM | 0.33 | ED50 [5]: ~50 mg/kg
COc1cc2ncnc(Nc3ccc(F)c(Cl)c3)c2cc1OCC1COCO1 (stereo not shown) [Example 5, 4-(3'-chloro-4'-fluoroanilino)-6-(1,3-dioxolan-4-ylmethoxy)-7-methoxyquinazoline] | 0.015 µM | 0.14 | 
COc1cc2ncnc(Nc3cccc(Br)c3)c2cc1OC [4-(3'-bromoanilino)-6,7-dimethoxyquinazoline] |  |  | inhibitor of EGF receptor tyrosine kinase (in words) [6]: highly potent inhibitor
COc1cc2ncnc(Nc3ccc(F)c(Cl)c3)c2cc1OCCC1OCCCO1 [Example 8, 4-(3'-chloro-4'-fluoroanilino)-6-[2-(1,3-dioxan-2-yl)ethoxy]-7-methoxyquinazoline] | 0.005 µM | 0.04 | 
